Measured values from patent US8143262B2, “7-(3′,4′-Dialkoxyphenyl)[1,2,4]-triazolo[1,5-A]pyrimidine compounds, process for preparing thereof, and pharmaceutical composition for treating or preventing asthma, chronic obstructive pulmonary disease, arthritis, atopic dermatitis, tumor and degenerative brain diseases comprising the same” (Korea Research Institute of Chemical Technology, priority 2007, dated 2012).

Target: T1, Human PDE-4d (Homo sapiens, UniProt Q08499)
T1 construct: The catalytic domain of PDE4d was cloned to pGEX4T3 (APBiotech) as GST fusion expression vector; GST (N); made in house; host or cells: E. coli BL21, DE3
T1 sequence (Q08499 386-715 limits assumed): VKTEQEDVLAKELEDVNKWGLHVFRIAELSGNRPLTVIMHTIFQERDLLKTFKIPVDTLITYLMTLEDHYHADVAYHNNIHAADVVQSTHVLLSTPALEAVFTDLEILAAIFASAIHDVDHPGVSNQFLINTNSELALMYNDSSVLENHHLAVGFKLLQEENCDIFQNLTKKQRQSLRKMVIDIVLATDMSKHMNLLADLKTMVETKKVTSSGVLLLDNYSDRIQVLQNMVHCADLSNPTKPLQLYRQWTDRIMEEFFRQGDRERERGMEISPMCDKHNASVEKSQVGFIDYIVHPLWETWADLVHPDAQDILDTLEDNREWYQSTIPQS
Experiment: Inhibition of PDE-4 activity ([3H]cAMP hydrolysis, recombinant catalytic domain)
Format: biochemical
Conditions: PDE4d 1 nM, cAMP 250 nM, 34° C., 45 minutes; read-out: IC50 against PDE-4 enzyme
Procedure: Experiment of inhibiting PDE-4 activity was carried out by modifying the method of Loughney (Loughney et al., Journal of Biological Chemistry, 1996, 271(2), 796-806). Human PDE-4d prepared by means of gene recombination technology was used as PDE-4d
The catalytic domain of PDE4d was cloned to pGEX4T3 (APBiotech) as GST fusion expression vector, and then PDE4d gene was transformed to E. coli BL21, DE3. The strain was cultured at 37° C. in LB medium, and when OD reached about 0.3˜0.5, the temperature was lowered to 18° C. to induce expression of PDE4d by using 0.5 mM IPTG. After 15 hours from induction of the expression, cells with PDE4d expressed were recovered. The cells were suspended in a buffer solution (50 mM Tris, pH 8.0, 0.4M NaCl, 5 mM DTT), and crushed, centrifuged and purified. The columns used for the purification were Q-cephalose (APBiotech), Glutanione-cephalose (APBiotech) and Superdex200 gel permeation chromatography (APBiotech), in this order.
In order to measure the ability of individual compound to inhibit PDE4d activity, PDE4d 1 nM and cAMP (Sigma) 250 nM as substrate were added to the reaction buffer (50 mM Tris-HCl (pH 7.5) and 4 mM MgCl2), and individual compound obtained from Example 1 was added in a concentration from 1 to 50 μM thereto, and the mixture was reacted at 34° C. for 45 minutes. Total reaction solution was 60 μl. As to cAMP, a mixture with the ratio of [^3H]cAMP (Amersham, 1 μCi/μl) to cAMP (hot:cold, that is, isotope:non-isotope) being 1:200 was used. Then, the reaction was quenched by heating at 95° C. for 2 minutes. After cooling the mixture for 3 minutes, 1 mg/ml of Snake Venome (Sigma V0376) (30 μl) was added thereto. After reacting at 34° C. for 30 minutes, 30 μl of the reaction mixture was added to 250 μl of DOWEX 1×2-100 ion exchange resin (Aldrich, previously mixed with distilled water in a ratio of 1:1.6) by portions, and the mixture was vigorously stirred for 2 minutes. After settling the resin down, the supernatant (130 μl) was added to 2 ml of scintillation cocktail (Packard), and the mixture was thoroughly mixed, and then measured by using beta-counter. With respect to the enzyme activity of control group (experiment carried out without adding compound of Chemical Formula (1)), the concentration of each test compound to inhibit 50% of enzyme activity was determined as IC50.

Row | IC50 [nM] | Structure (SMILES)
1 | 30 | Cc1cccc(-c2nc3nccc(-c4ccc(OC(F)F)c(OCC5CC5)c4)n3n2)c1 [Compound 132, 7-[3-(Cyclopropylmethoxy)-4-(difluromethoxy)phenyl]-2-m-tolyl-[1,2,4]triazolo[1,5-a]pyrimidine]
2 | 14 | FC(F)Oc1ccc(-c2ccnc3nc(-c4cccc(Br)c4)nn23)cc1OCC1CC1 [Compound 121, 2-(3-Bromophenyl)-7-[3-(cyclopropylmethoxy)-4-(difluoromethoxy)phenyl]-[1,2,4]triazolo[1,5-a]pyrimidine]
3 | 20 | O=[N+]([O-])c1cccc(-c2nc3nccc(-c4ccc(OC(F)F)c(OCC5CC5)c4)n3n2)c1 [Compound 116, 7-[3-(Cyclopropylmethoxy)-4-(difluoromethoxy)phenyl]-2-(3-nitrophenyl)-[1,2,4]triazolo[1,5-a]pyrimidine]
4 | 200 | O=C(O)c1ccc(-c2nc3nccc(-c4ccc(OC(F)F)c(OCC5CC5)c4)n3n2)cn1 [Compound 137, 5-[7-{3-(cyclopropylmethoxy)-4-(difluoromethoxy)phenyl}-[1,2,4]triazolo[1,5-a]pyrimidin-2-yl]pyridine-2-carboxylic acid]
5 | 160 | [O-][n+]1ccc(-c2nc3nccc(-c4ccc(OC(F)F)c(OCC5CC5)c4)n3n2)cc1 [Compound 110, 4-[7-{3-(Cyclopropylmethoxy)-4-(difluoromethoxy)phenyl}-[1,2,4]triazolo[1,5-a]pyrimidine-2-yl]-pyridine-N-oxide]
6 | 50 | FC(F)Oc1ccc(-c2ccnc3nc(-c4ccc(I)cc4)nn23)cc1OCC1CC1 [Compound 127, 7-[3-(Cyclopropylmethoxy)-4-(difluoromethoxy)phenyl]-2-(4-iodophenyl)-[1,2,4]triazolo[1,5-a]pyrimidine]
7 | 79 | FC(F)Oc1ccc(-c2ccnc3nc(-c4ccncc4)nn23)cc1OCC1CC1 [Compound 103, 7-[3-(Cyclopropylmethoxy)-4-(difluoromethoxy)phenyl]-2-pyridin-4-yl-[1,2,4]triazolo[1,5-a]pyrimidine]
8 | 50 | N#Cc1ccc(-c2nc3nccc(-c4ccc(OC(F)F)c(OCC5CC5)c4)n3n2)cc1 [Compound 117, 2-(4-Cyanophenyl)-7-[3-(cyclopropylmethoxy)-4-(difluoromethoxy)phenyl]-[1,2,4]triazolo[1,5-a]pyrimidine]
9 | 160 | [O-][n+]1cccc(-c2nc3nccc(-c4ccc(OC(F)F)c(OCC5CC5)c4)n3n2)c1Cl [Compound 109, 3-[7-{3-(Cyclopropylmethoxy)-4-(difluoromethoxy)phenyl}-[1,2,4]triazolo[1,5-a]pyrimidine-2-yl]-2-Chloropyridine-N-oxide]
10 | 190 | N#Cc1ncccc1-c1nc2nccc(-c3ccc(OC(F)F)c(OCC4CC4)c3)n2n1 [Compound 124, 2-(6-cyano-pyridin-5-yl)-7-[3-(cyclopropylmethoxy)-4-(difluoromethoxy)phenyl]-[1,2,4]triazolo[1,5-a]pyrimidine]
11 | 40 | FC(F)Oc1ccc(-c2ccnc3nc(-c4cccc(Cl)c4)nn23)cc1OCC1CC1 [Compound 120, 2-(3-Chlorophenyl)-7-[3-(cyclopropylmethoxy)-4-(difluoromethoxy)phenyl]-[1,2,4]triazolo[1,5-a]pyrimidine]
12 | 190 | FC(F)Oc1ccc(-c2ccnc3nc(-c4ccc(C(F)(F)F)cc4)nn23)cc1OCC1CC1 [Compound 125, 7-[3-(Cyclopropylmethoxy)-4-(difluoromethoxy)phenyl]-2-(4-trifluoromethylphenyl)-[1,2,4]triazolo[1,5-a]pyrimidine]
13 | 30 | FC(F)Oc1ccc(-c2ccnc3nc(-c4cccc(C(F)(F)F)c4)nn23)cc1OCC1CC1 [Compound 128, 7-[3-(Cyclopropylmethoxy)-4-(difluoromethoxy)phenyl]-2-(3-trifluoromethylphenyl)-[1,2,4]triazolo[1,5-a]pyrimidine]
14 | 47 | N#Cc1cccc(-c2nc3nccc(-c4ccc(OC(F)F)c(OC(F)F)c4)n3n2)c1 [Compound 122, 7-(3,4-Bis-difluoromethoxyphenyl)-2-(3-cyanophenyl)-[1,2,4]triazolo[1,5-a]pyrimidine]
15 | 170 | FC(F)Oc1ccc(-c2ccnc3nc(-c4cccnc4)nn23)cc1OC(F)F [Compound 114, 7-(3,4-Bis-difluoromethoxyphenyl)-2-pyridin-3-yl[1,2,4]triazolo[1,5-a]pyrimidine]
16 | 42 | FC(F)Oc1ccc(-c2ccnc3nc(-c4cccnc4)nn23)cc1OCC1CC1 [Compound 111, 3-[7-{3-(cyclopropylmethoxy)-4-(difluoromethoxy)phenyl}-[1,2,4]triazolo[1,5-a]pyrimidin-2-yl]-pyridinium bisulfate]
17 | 60 | Cc1ccc(-c2nc3nccc(-c4ccc(OC(F)F)c(OCC5CC5)c4)n3n2)c(C)c1 [Compound 136, 7-[3-(Cyclopropylmethoxy)-4-(difluoromethoxy)phenyl]-2-(2,4-dimethylphenyl)-[1,2,4]triazolo[1,5-a]pyrimidine]
18 | 40 | COc1cc(-c2nc3nccc(-c4ccc(OC(F)F)c(OCC5CC5)c4)n3n2)ccc1C [Compound 134, 7-[3-(Cyclopropylmethoxy)-4-(difluoromethoxy)phenyl]-2-(3-methoxy-4-methylphenyl)-[1,2,4]triazolo[1,5-a]pyrimidine]
19 | 42 | Cc1cc(C)cc(-c2nc3nccc(-c4ccc(OC(F)F)c(OCC5CC5)c4)n3n2)c1 [Compound 133, 7-[3-(Cyclopropylmethoxy)-4-(difluoromethoxy)phenyl]-2-(3,5-dimethylphenyl)-[1,2,4]triazolo[1,5-a]pyrimidine]
20 | 50 | Cc1ccc(-c2nc3nccc(-c4ccc(OC(F)F)c(OCC5CC5)c4)n3n2)cc1 [Compound 113, 7-[3-(Cyclopropylmethoxy)-4-(difluoromethoxy)phenyl]-2-p-tolyl-[1,2,4]triazolo[1,5-a]pyrimidine]
21 | 52 | FC(F)Oc1ccc(-c2ccnc3nc(-c4cccnc4Cl)nn23)cc1OCC1CC1 [Compound 105, 2-(2-chloropyridin-3-yl)-7-[3-(cyclopropylmethoxy)-4-(difluoromethoxy)phenyl]-[1,2,4]triazolo[1,5-a]pyrimidine]
22 | 180 | COC(=O)c1ccc(-c2nc3nccc(-c4ccc(OC(F)F)c(OCC5CC5)c4)n3n2)cn1 [Compound 138, 5-[7-{3-(cyclopropylmethoxy)-4-(difluoromethoxy)phenyl}-[1,2,4]triazolo[1,5-a]pyrimidin-2-yl]pyridine-2-carboxylic acid methyl ester]
23 | 160 | FC(F)Oc1ccc(-c2ccnc3nc(-c4ccc(Cl)nc4)nn23)cc1OCC1CC1 [Compound 104, 2-(6-chloropyridin-3-yl)-7-[3-(cyclopropylmethoxy)-4-(difluoromethoxy)phenyl]-[1,2,4]triazolo[1,5-a]pyrimidine]
24 | 6 | COc1cccc(-c2nc3nccc(-c4ccc(OC(F)F)c(OCC5CC5)c4)n3n2)c1 [Compound 107, 7-[3-(Cyclopropylmethoxy)-4-(difluoromethoxy)phenyl]-2-(3-methoxyphenyl)-[1,2,4]triazolo[1,5-a]pyrimidine]

Row | Structure (SMILES) | IC50 [nM]
25 | COc1ccc(-c2ccnc3nc(-c4cccnc4)nn23)cc1OC1CCCC1 [Compound 135, 7-[3-(Cyclopentoxy)-4-methoxyphenyl]-2-(3-pyridyl)-[1,2,4]triazolo[1,5-a]pyrimidine] | 50

Same assay, conditions: comment on Table 2

Row | activity on inhibiting PDE-4 (in words) | Structure (SMILES)
26 | excellent activity on inhibiting PDE-4 | FC(F)Oc1ccc(-c2ccnc3nc(-c4cccc(Br)c4)nn23)cc1OCC1CC1 [Compound 121, 2-(3-Bromophenyl)-7-[3-(cyclopropylmethoxy)-4-(difluoromethoxy)phenyl]-[1,2,4]triazolo[1,5-a]pyrimidine]
27 | excellent activity on inhibiting PDE-4 | COc1cccc(-c2nc3nccc(-c4ccc(OC(F)F)c(OCC5CC5)c4)n3n2)c1 [Compound 107, 7-[3-(Cyclopropylmethoxy)-4-(difluoromethoxy)phenyl]-2-(3-methoxyphenyl)-[1,2,4]triazolo[1,5-a]pyrimidine]
